Experimental data from article PMC4929432, “The Oligopeptide Permease Opp Mediates Illicit Transport of the Bacterial P-site Decoding Inhibitor GE81112” (Antibiotics, 2016).

How the values were obtained:
[1] = system: ribosome, 16S rRNA mutation A1518U; experiment: In vitro mRNA translation; assay type: biochemical; conditions: E. coli AVS69009 16S rRNA A1518U
Description: (§1) The ribosomal localization of GE81112, as determined by a recent crystallographic study, places this antibiotic in a position that is not too far away from the binding site of kasugamycin [20, 21]. For this reason, some ribosomal mutants bearing 16S rRNA base substitutions that cause kasugamycin resistance were tested for their sensitivity to GE81112 inhibition.
(§2) The 027IF2Cp(A) mRNA and the bacterial S30 cell extracts were prepared as described. The incubation conditions for mRNA translation and for the determination of synthesized product have also been previously described.

[2] = system: ribosome, 16S rRNA mutation A794G; experiment: In vitro mRNA translation; assay type: biochemical; conditions: E. coli AVS69009 16S rRNA A794G
Description: as §1, §2

[3] = system: ribosome, 16S rRNA mutation A794U; experiment: In vitro mRNA translation; assay type: biochemical; conditions: E. coli AVS69009 16S rRNA A794U
Description: as §1, §2

[4] = system: ribosome, 16S rRNA mutation G926A; experiment: In vitro mRNA translation; assay type: biochemical; conditions: E. coli AVS69009 16S rRNA G926A
Description: as §1, §2

[5] = system: ribosome, 16S rRNA mutation G926C; experiment: In vitro mRNA translation; assay type: biochemical; conditions: E. coli AVS69009 16S rRNA G926C
Description: as §1, §2

[6] = system: ribosome, 16S rRNA mutation G926U; experiment: In vitro mRNA translation; assay type: biochemical; conditions: E. coli AVS69009 16S rRNA G926U
Description: as §1, §2

ribosome, 16S rRNA wt = experiment: In vitro mRNA translation; assay type: biochemical; conditions: E. coli AVS69009 16S rRNA wt
Description: as §1, §2

opp expression = conditions: ref [17],[18]; cited from earlier work
glutamine synthetase = conditions: product of bialaphos hydrolysis; ref [10]; cited from earlier work
[7] = system: B. subtilis resistant clones; experiment: Cross-resistance of resistant clones; assay type: cell-based; conditions: of 10 GE81112-resistant clones
[8] = system: bacterial peptide transporting systems; conditions: ref [10]; cited from earlier work
Source text: Indeed, several peptide transport systems exist in E. coli as well in B. subtilis and the peptides actively transported inside the cells can supp ...

Opp of B. subtilis = conditions: ref [10]; cited from earlier work
Opp = conditions: ref [17]; cited from earlier work
[9] = system: E. coli DH5α + pB2 (oppBCDF); experiment: Growth inhibition halo; assay type: cell-based; conditions: 10 μg; minimal medium agar; 24 h at 37 °C
Description: (§3) The inhibition of bacterial growth by antibiotics was also determined from the diameter of the growth inhibition halo. Bacterial suspensions obtained after overnight growth in minimal medium were diluted and inoculated in 4 mL of Agar–H2O (0.75%) and plated on minimal medium. Ten-microliter spots of the antibiotics were added and the growth inhibition halos measured after 24 h incubation at 37 °C.

[10] = system: E. coli DH5α + pBΦ30 (oppA); experiment: Growth inhibition halo; assay type: cell-based; conditions: 10 μg; minimal medium agar; 24 h at 37 °C
Description: as §3

[11] = system: E. coli DH5α + pBΦ30 + pB2; experiment: Growth inhibition halo; assay type: cell-based; conditions: 10 μg; minimal medium agar; 24 h at 37 °C
Description: as §3

E. coli DH5α = experiment: Growth inhibition halo; assay type: cell-based
Description: as §3

E. coli MG1655 = experiment: Growth inhibition halo; assay type: cell-based
Description: as §3

[12] = system: E. coli SS320 (wt) + pB2 + pBΦ30; experiment: Growth inhibition halo; assay type: cell-based; conditions: for Halo of Inhibition: minimal medium agar, 24 h at 37 °C
Description: as §3

E. coli SS320 (wt) = experiment: Growth inhibition halo; assay type: cell-based; conditions: minimal medium agar, 24 h at 37 °C
Description: as §3

[13] = system: E. coli SS5012 (ΔoppABCDF); experiment: Growth inhibition halo; assay type: cell-based; conditions: for Halo of Inhibition: minimal medium agar, 24 h at 37 °C
Description: as §3

[14] = system: E. coli SS5012 + pB2 (oppBCDF); experiment: Growth inhibition halo; assay type: cell-based; conditions: minimal medium agar, 24 h at 37 °C
Description: as §3

[15] = system: E. coli SS5012 + pB2 + pBΦ30; experiment: Growth inhibition halo; assay type: cell-based; conditions: for Halo of Inhibition: minimal medium agar, 24 h at 37 °C
Description: as §3

[16] = system: E. coli SS5012 + pBΦ30 (oppA); experiment: Growth inhibition halo; assay type: cell-based; conditions: minimal medium agar, 24 h at 37 °C
Description: as §3

[17] = system: E. coli MG1655 resistant mutants; experiment: Cross-resistance of resistant mutants; assay type: cell-based; conditions: of 100 GE81112-resistant colonies; tri-L-ornithine 100 μg/mL
[18] = system: mRNA translation in cell-free extracts; conditions: ref [16]; cited from earlier work
Source text: (§4) Therefore, the most likely explanation for the observed tri-L-ornithine/GE81112 cross-resistance is that the mutations have inactivated the same transport mechanism that allows these two molecules to enter the cell.

translation in vivo = conditions: early studies; ref [16]; cited from earlier work
Source text: as §4

[19] = 10 μg, minimal medium agar, 24 h at 37 °C

Question: With C[C@H]1O[C@H](O[C@H]2[C@H](O)[C@@H](O)[C@@H](O)[C@H](O)[C@@H]2O)[C@@H](N)C[C@@H]1NC(=N)C(=O)O [Kasugamycin] as the molecule, how does the “IC50 of mRNA Translation” value [1] read?
Answer: The value was 880 µg/mL.

Question: And the “IC50 of mRNA Translation” value [2]?
Answer: The value was 780 µg/mL.

Question: And the “IC50 of mRNA Translation” value [3]?
Answer: Its value is 384 µg/mL.

Question: And the “IC50 of mRNA Translation” value [4]?
Answer: Its value is 390 µg/mL.

Question: What about the “IC50 of mRNA Translation” value [5] of the same molecule?
Answer: The value was 192 µg/mL.

Question: And the “IC50 of mRNA Translation” value [6]?
Answer: The value was 750 µg/mL.

Question: And the “IC50 of mRNA Translation” value (ribosome, 16S rRNA wt)?
Answer: Its value is 12 µg/mL.

Question: Which “effect on opp expression” value (opp expression) does the source give for CC(C)C[C@H](N)C(=O)O [L-leucine] here?
Answer: Its value is “induces opp expression”.

Question: With CP(=O)(O)CC[C@H](N)C(=O)O [phosphinothricin] as the molecule, how does the “inhibition of glutamine synthetase” value (glutamine synthetase) read?
Answer: Its value is “inhibits glutamine synthetase”.

Question: Which “GE81112-resistant clones sensitive to bialaphos” value [7] does the source give for bialaphos here?
Answer: The value was “none”.

Question: And the “active transport with antibacterial effects” value [8]?
Answer: The value was “actively transported inside the cell causing antibacterial effects”.

Question: And the “active transport by Opp” value (Opp of B. subtilis)?
Answer: Its value is “actively transported by Opp”.

Question: With tri-L-alanine as the molecule, how does the Opp substrate (Opp) read?
Answer: The Opp substrate was “known non-toxic Opp substrate”.

Question: Which results are given for tri-L-ornithine [Orn3]?
Answer: Halo of Inhibition [9]: 10 mm; Halo of Inhibition [10]: 11 mm; Halo of Inhibition [11]: 14 mm; Halo of Inhibition (E. coli DH5α; [19]): 0 mm; growth inhibition, in words (E. coli DH5α; E. coli DH5α (Table 4)): unaffected; Halo of Inhibition (E. coli MG1655; [19]): 10 mm; growth inhibition, in words (E. coli MG1655; E. coli MG1655 (Table 4)): inhibited; Halo of Inhibition ([12]; 1 μg): 17 mm; Halo of Inhibition ([12]; 10 μg): 27 mm; sensitivity, in words ([12]; wt transformed with both pBΦ30 and pB2): more sensitive; Halo of Inhibition (E. coli SS320 (wt); 1 μg): 7 mm; Halo of Inhibition (E. coli SS320 (wt); 10 μg): 12 mm; Halo of Inhibition ([13]; 1 μg): 0 mm; Halo of Inhibition ([13]; 10 μg): 0 mm; growth inhibition on minimal medium agar, in words ([13]; E. coli 5012, opp− mutant): insensitive; Halo of Inhibition ([14]; 1 μg): 0 mm; Halo of Inhibition ([14]; 10 μg): 0 mm; Halo of Inhibition ([15]; 1 μg): 18 mm; Halo of Inhibition ([15]; 10 μg): 26 mm; sensitivity, in words ([15]; expression in trans of oppA together with oppBCDF): sensitive; Halo of Inhibition ([16]; 1 μg): 0 mm; Halo of Inhibition ([16]; 10 μg): 0 mm; number of GE81112-resistant mutants cross-resistant to tri-L-ornithine [17]: 100; inhibition of mRNA translation in vitro [18]: unable to inhibit mRNA translation; inhibition of translation in vivo (translation in vivo): inhibits translation in vivo; active transport with antibacterial effects [8]: actively transported inside the cell causing antibacterial effects
